Patent publication US8476484B2, “Transgenic clawed frog embryos and use thereof as detectors of endocrine disrupters in the environment” (Centre National de la Recherche Scientifique (CNRS), priority 2002, dated 2013)
Entries after “also recorded” stand apart in the source; their conditions may differ.

Key:
[1] = system: TRE-tk-luciferase construct (rat malic enzyme TRE); test: Somatic transgenesis in xenopus dorsal muscle with TRE-tk-luciferase; type: in vivo; conditions: T3 10^-8 M vs -T3; measured four days after treatment; FIG. 5
Protocol: The somatic transgenesis is carried out either: • by injection of 1 μl of naked DNA into the dorsal muscle of the embryo. The DNA concentration is 100 ng/μl to 5 μg/μl in 0.07 M NaCL; • by microinjection of 1 μl of DNA/PEI (polyethyleneimine) into the brain of the embryo. The DNA concentration is between 50 and 500 ng/μl in 5% glucose. 3.1. […] 3.2.

[2] = system: TRE-tk-EGFP construct (rat malic enzyme TRE); test: Somatic transgenesis in xenopus dorsal muscle with TRE-tk-EGFP; type: in vivo; conditions: T3 10 nM vs -T3; detected four days later; FIG. 7
Protocol: FIG. 7: Somatic transgenesis by injection, into the dorsal muscle of xenopus, of the construct TRE-tk-EGFP. The animals are transfected by injection into the dorsal muscle of […] of the construct TRE-tk-EGFP. The animals are then treated for 48 hours in the presence (+T3 10 nM) or in the absence (−T3) of T3 thyroid hormone. […] The somatic transgenesis is carried out either: • by injection of 1 μl of naked DNA into the dorsal muscle of the embryo. The DNA concentration is 100 ng/μl to 5 μg/μl in 0.07 M NaCL; • by microinjection of 1 μl of DNA/PEI (polyethyleneimine) into the brain of the embryo. The DNA concentration is between 50 and 500 ng/μl in 5% glucose. 3.3. The TRE-tk-EGFP construct was injected into the dorsal muscle of a xenopus embryo ([…]). Half the animals are treated with T3 thyroid hormone at 10 nM.

[3] = system: TRE-tk-luciferase construct (rat malic enzyme TRE); test: Somatic transgenesis with TRE-tk-luciferase in dorsal muscle of pretreated xenopus tadpoles; type: in vivo; conditions: tadpoles pretreated with perchlorate and T3 10^-11 M; then T3 10^-8 M for 48 hours vs control; FIG. 6
Protocol: FIG. 6: Somatic transgenesis by injection, into the dorsal muscle of pretreated xenopus animals, of the construct TRE-tk-luciferase. The animals are pretreated for 48 hours with 10^−11 M of T3 thyroid hormone, and then rinsed for 24 hours. The animals are then transfected by injection into the dorsal muscle of 1 mg/animal of the construct TRE-tk-luciferase. The animals are then treated for 48 hours (10^−8 M) or in the absence (−T3) of thyroid hormone. Two days after treatment, the luciferase expression is measured. […] According to an alternative method, the transgenic animals according to the invention are pretreated with perchlorate for one month at 1 g/l, and are then sensitized with the test compound, such as the T3 hormone (10^−11 M), for 18 to 48 hours without food. The animals are then washed in a medium containing no T3 and are fed for 36 hours. The construct (for example TRE-tk-luciferase) is injected into the dorsal muscle of the xenopus embryo (1 mg/animal). Out of the 24 tadpoles that were pretreated and then subjected to somatic transgenesis, twelve tadpoles are treated for 48 hours with T3 thyroid hormone at 10^−8 M; the other twelve tadpoles that remain serve as a control.

[4] = system: xenopus stromelysin 3 promoter (several TREs) coupled to luciferase in XTC cells; test: XTC cell transfection with the stromelysin 3/luciferase construct; type: cell-based; conditions: T3 10^-8 M in culture medium vs absence of T3 (basal level), FIG. 4
Protocol: The construct is transferred into XTC cells by complexing the DNA with PEI (22 kDA, at 6 equivalents), the transfected cells are cultured in the presence (10^−8 M) or in the absence (−T3) of T3 thyroid hormone.
The transgenic constructs are tested in XTC xenopus cells in culture.
The XTC cells are obtained from carcasses of xenopus tadpoles just before metamorphosis (Pudney et al., 1973). The cells are cultured at ambient temperature, for up to 20 passages.
The cells are transfected by complexing the DNA with 22 kDa polyethyleneimine (PEI) at 6 equivalents (Ouatas et al., 1998).
The protocol makes it possible to rapidly verify the constructs and thus to verify that said constructs respond correctly to the substances, such as the T3 thyroid hormone when it is injected into the cell culture medium.

[5] = system: DR4(X3)-GFP construct (consensus TRE); conditions: thyroid hormone 10^-8 M in the water of the aquarium; FIG. 8
Protocol: The germinal transgenesis is carried out according to the protocol described by Kroll and Amaya (1996).

- expression of the reporter protein (luciferase) [1]: much greater expression
- expression of the reporter protein (luciferase) [3]: much greater expression
SMILES: N[C@@H](Cc1cc(I)c(Oc2ccc(O)c(I)c2)c(I)c1)C(=O)O [T3 thyroid hormone, Tri-iodothyronine]
- expression of the reporter protein (EGFP) [2]: much greater expression; also recorded: bioluminescence is visible in the cells of the treated animal
- expression of the luciferase reporter protein [4]: greater expression
- emission of fluorescence (GFP) [5]: emission of fluorescence throughout the nervous system and in the limb buds
